Data on 45 compounds can be found in ChEMBL document CHEMBL1201862, “PubChem BioAssay data set” (2004).

Structures are written as SMILES. Calls of active or inactive are those of the source. For most assays here, no stated cut-off is given here; in the data, actives have a measured EC50 and inactives only a lower limit.

Assay [1] in a line: cytotoxicity toward NIH3T3 fibroblasts, dose response, counter-screen, cell-based, ATP luminescence, mouse fibroblasts (AID 2010).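 Further: cells exposed to compound for about 90 hours before reading.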 In kind it is functional. Background: The purpose of a counterscreen is to sort out artefacts and off-target activity.
Assay [2] in a line: inhibitors of intracellular T. cruzi replication, confirmation, NIH3T3 host cells, beta-gal luminescence (AID 2044).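 Further: intracellular parasites grown in NIH/3T3 mouse fibroblasts as host cells; luminescent beta-galactosidase reporter signal from transgenic T. cruzi replicating inside host cells; inhibitors lower the luminescence signal.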 It is filed as functional, cell-based.
The next assay deals with T1, Streptokinase A (Streptococcus pyogenes serotype M1, UniProt P10520).
T1 sequence (P10520 whole entry): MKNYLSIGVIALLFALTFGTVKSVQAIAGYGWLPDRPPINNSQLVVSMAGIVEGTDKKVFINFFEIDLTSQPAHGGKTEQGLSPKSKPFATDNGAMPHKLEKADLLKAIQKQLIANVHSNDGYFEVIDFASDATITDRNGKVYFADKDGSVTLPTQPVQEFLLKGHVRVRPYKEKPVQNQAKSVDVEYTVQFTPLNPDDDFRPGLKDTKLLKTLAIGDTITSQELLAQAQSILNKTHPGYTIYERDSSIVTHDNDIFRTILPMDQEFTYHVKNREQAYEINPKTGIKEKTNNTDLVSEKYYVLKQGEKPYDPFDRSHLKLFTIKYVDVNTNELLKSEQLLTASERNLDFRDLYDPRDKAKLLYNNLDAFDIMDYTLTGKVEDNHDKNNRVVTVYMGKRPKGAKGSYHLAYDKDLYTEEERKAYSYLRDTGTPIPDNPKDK
Put plainly: S. pyogenes streptokinase expression inhibitors, potency, dose response, plasminogen activation absorbance, OD405 (AID 1914).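 Further: secreted streptokinase activity via plasminogen activation per viability signal from cell pellet.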 In kind it is functional, Streptococcus pyogenes M1 GAS.

For assay [3], the system named is Streptococcus sp. 'group A'. Description: growth inhibition of control SK(-) GAS strain, dose response, counter-screen for streptokinase expression inhibitor project, luminescence, kanamycin, BacTiterGlo, confirmation (AID 1900). In kind it is functional, organism-based.
The next assay deals with Streptococcus. Description: Group A Streptococcus viability loss, dose response, counter-screen for streptokinase expression inhibitor project, luminescence, BacTiterGlo (AID 1915).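 Further: potency for reduction of bacterial viability or growth.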 It is filed as functional, organism-based.
The target in a further assay is T2, Cytochrome P450 1A2 (Homo sapiens, UniProt P05177).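 Further: PubChem cytochrome P450 panel assay, CYP1A2 panel member.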
T2 sequence (P05177 whole entry): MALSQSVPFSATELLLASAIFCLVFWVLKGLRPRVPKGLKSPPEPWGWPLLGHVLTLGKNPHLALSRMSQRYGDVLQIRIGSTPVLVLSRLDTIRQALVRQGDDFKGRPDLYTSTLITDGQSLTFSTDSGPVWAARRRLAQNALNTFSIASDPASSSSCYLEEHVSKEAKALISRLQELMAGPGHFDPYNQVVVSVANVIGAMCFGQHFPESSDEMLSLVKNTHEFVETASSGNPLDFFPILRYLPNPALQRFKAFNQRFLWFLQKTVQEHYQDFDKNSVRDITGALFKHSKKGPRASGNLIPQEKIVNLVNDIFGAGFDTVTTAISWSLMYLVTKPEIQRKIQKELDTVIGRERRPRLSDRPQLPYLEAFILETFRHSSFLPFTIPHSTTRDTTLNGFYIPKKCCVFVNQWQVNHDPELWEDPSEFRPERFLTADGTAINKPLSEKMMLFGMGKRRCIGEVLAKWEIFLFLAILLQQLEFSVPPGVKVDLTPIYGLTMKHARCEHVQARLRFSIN

A further assay concerns the target Paired box protein Pax-8 (Homo sapiens, UniProt Q06710). Put plainly: inhibitors of PAX8-driven TPO luciferase reporter, dose response, RMG-I cells, cherry-pick (AID 687027).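 Further: luciferase reporter driven by Pax8 target thyroperoxidase promoter measured by SteadyGlo luminescence.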 It is filed as functional, cell-based. For orientation: A reporter such as luciferase makes a cellular process visible.
Assay [4] concerns the target T3, Heat shock factor protein 1 (Mus musculus, UniProt P38532).
T3 sequence (P38532 whole entry): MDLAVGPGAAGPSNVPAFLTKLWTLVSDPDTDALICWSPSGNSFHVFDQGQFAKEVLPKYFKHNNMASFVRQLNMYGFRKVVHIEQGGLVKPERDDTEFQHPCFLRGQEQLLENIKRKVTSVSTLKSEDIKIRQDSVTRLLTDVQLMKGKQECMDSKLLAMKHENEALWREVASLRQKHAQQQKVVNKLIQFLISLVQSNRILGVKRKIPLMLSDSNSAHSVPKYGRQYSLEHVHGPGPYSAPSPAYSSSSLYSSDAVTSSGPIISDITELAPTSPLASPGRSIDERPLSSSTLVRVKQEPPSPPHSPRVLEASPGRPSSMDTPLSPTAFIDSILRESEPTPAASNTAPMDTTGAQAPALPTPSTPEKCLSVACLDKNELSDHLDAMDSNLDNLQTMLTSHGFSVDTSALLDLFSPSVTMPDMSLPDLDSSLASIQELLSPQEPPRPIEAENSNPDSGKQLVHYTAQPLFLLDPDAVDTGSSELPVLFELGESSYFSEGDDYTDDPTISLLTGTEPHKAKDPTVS
Description: inhibition of MG132-induced HSE-luciferase signal, confirmation, cell-based, NIH3T3, luminescence, dose retest (AID 2382).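 Further: NIH3T3 fibroblasts with HSF1-driven luciferase reporter stressed by proteasome inhibitor MG132; luminescence from HSF1-driven luciferase expression after 8 hours of MG132 stress.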 In kind it is functional.

The target of a further assay is Cytochrome P450 2D6 (Homo sapiens, UniProt P10635).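 Further: CYP2D6 member of a cytochrome P450 panel assay.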
Chain of Cytochrome P450 2D6 (P10635 whole entry): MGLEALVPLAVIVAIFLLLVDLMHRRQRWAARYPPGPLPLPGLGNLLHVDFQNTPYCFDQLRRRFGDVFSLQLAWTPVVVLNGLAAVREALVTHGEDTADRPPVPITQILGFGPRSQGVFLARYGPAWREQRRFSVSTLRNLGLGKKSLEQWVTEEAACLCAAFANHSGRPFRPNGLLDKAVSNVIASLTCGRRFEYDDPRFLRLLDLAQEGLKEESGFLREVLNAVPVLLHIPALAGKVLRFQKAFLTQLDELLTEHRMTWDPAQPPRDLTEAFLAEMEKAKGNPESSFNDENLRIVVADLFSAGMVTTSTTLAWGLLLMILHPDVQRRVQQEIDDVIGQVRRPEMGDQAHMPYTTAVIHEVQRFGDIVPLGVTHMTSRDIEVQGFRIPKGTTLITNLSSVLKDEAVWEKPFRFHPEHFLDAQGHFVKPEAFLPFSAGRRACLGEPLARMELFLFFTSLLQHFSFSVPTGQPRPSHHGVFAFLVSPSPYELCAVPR

Chain of Paired box protein Pax-8 (Q06710 whole entry): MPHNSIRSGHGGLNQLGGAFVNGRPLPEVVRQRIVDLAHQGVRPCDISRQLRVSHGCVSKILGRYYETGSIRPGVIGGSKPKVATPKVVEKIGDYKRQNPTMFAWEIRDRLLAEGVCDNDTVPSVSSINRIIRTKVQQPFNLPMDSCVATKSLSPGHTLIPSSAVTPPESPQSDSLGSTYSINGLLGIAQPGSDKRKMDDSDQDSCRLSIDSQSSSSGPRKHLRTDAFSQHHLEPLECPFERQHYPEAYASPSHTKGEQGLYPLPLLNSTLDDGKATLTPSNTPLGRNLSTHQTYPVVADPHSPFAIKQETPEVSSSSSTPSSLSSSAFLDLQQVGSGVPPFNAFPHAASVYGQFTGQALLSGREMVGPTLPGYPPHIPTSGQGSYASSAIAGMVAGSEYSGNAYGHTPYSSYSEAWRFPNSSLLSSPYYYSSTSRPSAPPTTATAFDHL

One may read the EC50 as the concentration at which the effect is half-maximal. With `CCCn1c(=O)n(C)c(=O)c2c(SCC(=O)NC34CC5CC(CC(C5)C3)C4)nc(CC(C)C)nc21`, the EC50 in [1] and in assay [2] was > 60 µM (not active) in each case.

Take `O=C(NCCCn1ccnc1)c1nn2c(C(F)(F)F)cc(-c3ccccc3)nc2c1Cl`: the concentration giving a half-maximal response (EC50) (at Streptokinase A; in assay [3]; in the assay with Streptococcus) was > 150 µM (not active) throughout.

As usually defined, the AC50 is the concentration at which the activity in the assay is half-maximal. On to `COc1cc(CNCc2cccs2)ccc1OCC(N)=O`, for which, on Cytochrome P450 1A2, the AC50 was 39.8 µM (inconclusive).

Regarding `C[C@@H]1CCCCO[C@@H](CN(C)S(=O)(=O)c2ccc(Cl)cc2)[C@H](C)CN([C@@H](C)CO)C(=O)c2cc(NS(=O)(=O)c3ccc(Cl)cc3)ccc2O1`, the AC50 on Paired box protein Pax-8 is 2.78 µM (active).

With `COc1ccc(NC(=O)c2ccc([N+](=O)[O-])cc2[N+](=O)[O-])c(OC)c1`, the EC50 in [1] is > 30 µM (not active); in [2] it was 1.16 µM (active).

As for `Cc1ccc(CN2CCN(Cc3ccccc3)CC2)cc1`, the EC50 is > 60 µM (not active) in assay [1] and 0.143 µM (active) in [2].

As to `Cc1nn(-c2ccccc2)c(Cl)c1C1C(C#N)=C(N)Oc2c1c(=O)oc1ccccc21` (stereo unspecified), the EC50 was 0.197 µM (active) in assay [3] and 0.344 µM (active) in the assay with Streptococcus.

With `O=C(O)c1cccc(NC(=S)NC(=O)c2ccc3ccccc3c2)c1`, the EC50 in assay [4] was 20.6 µM (active).

For `C[C@H]1CCCCO[C@@H](CN(C)Cc2ccc(C(F)(F)F)cc2)[C@@H](C)CN([C@@H](C)CO)C(=O)c2cc(NS(=O)(=O)c3cccs3)ccc2O1`, the AC50 on Paired box protein Pax-8 was 7.2 µM (active).

In the case of `Cc1nc2cnc(Oc3ccccc3)nc2n(Cc2cccs2)c1=O`, at Cytochrome P450 2D6, the half-maximal activity concentration (AC50) is 31.6 µM (inconclusive).

In the case of `Cc1nc2cc(-c3ccccc3)nn2c(C)c1CCC(=O)NC(C)c1ccc2c(c1)OCCO2` (stereo unspecified), the EC50 in assay [4] is > 195 µM (not active).

For the compound `Cc1ccc2oc(=O)cc(CN3CCN(C/C=C/c4ccccc4)CC3)c2c1`, the EC50 in assay [1] is > 60 µM (not active); in assay [2] it was 0.293 µM (active).

Regarding `COc1ccccc1-c1cc(NCc2cccc(C)c2)ncn1`, on Cytochrome P450 2D6, the AC50 is 20 µM (inconclusive).

`O=S(=O)(NCc1ccccn1)c1ccc(F)cc1`: in assay [4], the EC50 is reported as > 195 µM (not active).

Regarding `CCN1CCN(CCOc2ccc(Cl)cc2)CC1`, the EC50 is > 30 µM (not active) in [1] and 0.176 µM (active) in assay [2].

Take `CC(C)/C(=N/Nc1ccccc1[N+](=O)[O-])c1ccccc1`: the EC50 was 18.4 µM (active) on Streptokinase A, 6.63 µM (active) in assay [3] and 52.5 µM (active) in the assay on Streptococcus.

Take `CC1CCN(S(=O)(=O)c2ccc(NC(=O)CN3CCN(C)CC3)cc2)CC1`: the figures for the EC50 in [1] and in [2] were > 60 µM (not active) and 0.738 µM (active), respectively.

Regarding `O=C(CN1C(=O)C2C3C=CC(C3)C2C1=O)OCC(=O)c1ccc(Br)cc1` (stereo unspecified), the EC50 in [4] is listed as > 195 µM (not active).

In the case of `O=C(Cn1cnc2cc([N+](=O)[O-])ccc2c1=O)Nc1ccc2c(c1)CCC2`, the results for the EC50 in [1] and in [2] were > 60 µM (not active) and 0.5 µM (active), respectively.

For `Oc1ccccc1/C=N/NC(=S)NC1CC2C=CC1C2` (stereo unspecified), the EC50 at Streptokinase A is > 16 µM (not active); in [3] it was 5.04 µM (active); in the assay with Streptococcus it was > 16 µM (not active).

For the compound `Cc1noc(C)c1NC(=O)Nc1cccc2c1O[C@H](CN(C)Cc1ccc(C(F)(F)F)cc1)[C@H](C)CN([C@@H](C)CO)C2=O`, the AC50 at Paired box protein Pax-8 is 27.5 µM (active).

Turning to `CN(C)C(=O)c1ccc(-c2cncnc2NCc2ccccc2)cc1`, the concentration at half-maximal activity (AC50) on Cytochrome P450 1A2 was 20 µM (inconclusive).

As for `O=C(Nc1ccc(Br)cc1)C1CCC(=O)N1Cc1ccccc1Cl` (stereo unspecified), the AC50 at Cytochrome P450 1A2 is 14.1 µM (inconclusive).

Take `CCOc1ccc(N(CC(=O)NCc2ccc(C)cc2)S(=O)(=O)c2c(C)nc(O)nc2O)cc1`: the EC50 (on Streptokinase A; in assay [3]; with Streptococcus) was > 150 µM (not active) each time.

Turning to `Cc1ccc(OCc2nnc(SC(C)C(=O)O)n2-c2ccccc2)cc1` (stereo unspecified), in [4], the EC50 was > 195 µM (not active).

With `COC(=O)c1ccc(N2CCC(c3cc(-c4ccc(OC)cc4)[nH]n3)CC2)c([N+](=O)[O-])c1`, the EC50 in assay [3] was 3.87 µM (active); in the assay on Streptococcus, 44.2 µM (active).

Turning to `CCOc1ccc(NC(=O)C2CCCN(c3nn4c(=O)cc(C)nc4s3)C2)cc1` (stereo unspecified), the EC50 in assay [4] is on record as > 195 µM (not active).

On to `O=C1NC(=O)N(Cc2ccccc2)C(=O)/C1=C/NCCN1CCNCC1`, for which the EC50 in assay [4] was > 195 µM (not active).

`O=C(O)CCN1C(=S)CSC1=S`: the AC50 on Cytochrome P450 1A2 is 5.01 µM (inconclusive).

Regarding `COCC1=C(C(=O)OC(C)OC(=O)OC(C)C)N2C(=O)[C@@H](NC(=O)/C(=N\OC)c3csc(N)n3)[C@H]2SC1` (stereo partly specified) [CEFPODOXIME PROXETIL], the EC50 in assay [3] was 0.697 µM (active); in the assay on Streptococcus, 0.987 µM (active).

Consider `O=C(CSc1nc(Nc2ccccc2)nc(N2CCOCC2)n1)Nc1ccc([N+](=O)[O-])cc1`, for which the EC50 is > 60 µM (not active) in [1] and 2.18 µM (active) in [2].

With `CSCC[C@H](NC(=O)N1CCn2c1nc1ccccc12)C(=O)NC1CC1`, in assay [4], the EC50 is > 195 µM (not active).

With `CCCCCCn1c(=O)c(C(=O)N/N=C/c2cccc(F)c2)c(O)c2ccccc21`, the figures for the EC50 (in assay [3]; in the assay on Streptococcus) were 11.6 µM (active) and 16.1 µM (active), respectively.

Regarding `Cc1nc(Nc2ccc3c(c2)OCCO3)c2nnn(Cc3ccccc3Cl)c2n1`, the concentration for a half-maximal effect (EC50) in [4] is 3.43 µM (active); in assay [1], > 60 µM (not active); in assay [2] it was 2.74 µM (active).

Turning to `CCCc1nnc(NC(=O)CCC(=O)N2CCN(S(=O)(=O)c3ccc(F)cc3)CC2)s1`, the EC50 in [4] is on record as > 195 µM (not active).

Consider `COc1ccccc1NC(=O)/C=C1\SCC(=O)N1C`, for which the values for the EC50 in [1] and in assay [2] were > 60 µM (not active) and 0.949 µM (active), respectively.

Consider `COc1ccc(-c2ncn(CCC#N)c2[N+](=O)[O-])cc1`, for which the EC50 is > 150 µM (not active) at Streptokinase A, 3.52 µM (active) in [3] and 5.92 µM (active) in the assay on Streptococcus.

`O=C(Nc1ccc(S(=O)(=O)N2CCc3ccccc32)cc1)c1ccc2c(c1)OCO2`: the EC50 was > 60 µM (not active) in [1] and 3.4 µM (active) in [2].

In the case of `Cc1noc(C)c1COc1ccc(C(=O)OCC(=O)Nc2c(C)n(C)n(-c3ccccc3)c2=O)cc1`, in assay [4], the EC50 was > 195 µM (not active).

Consider `COC(=O)[C@@]12C[C@@H](CC(=O)N3CCN(C(=O)c4ccco4)CC3)C(=O)N(Cc3ccco3)C1=CCC(C)(C)C2`, for which the AC50 at Paired box protein Pax-8 was 2.44 µM (active).

Regarding `O=C(N/N=C/c1ccc(F)cc1)c1ccc(OCc2ccccc2)cc1`, the EC50 in [4] is recorded as > 195 µM (not active).

With `CCOC(=O)C1CCN(c2c(NCc3ccc(C(=O)Nc4ccc(C)cc4)cc3)c(=O)c2=O)CC1`, in assay [4], the EC50 is reported as > 195 µM (not active).

With `CC1CCCN(CCCOc2ccc(Cl)cc2Br)C1` (stereo unspecified), in assay [4], the EC50 is > 195 µM (not active).

`COc1cccc(-n2ccnc2SCC(=O)Nc2ccccc2F)c1`: the half-maximal effective concentration (EC50) in [4] was > 195 µM (not active).

Turning to `O=C(c1cnccn1)N1CCC2(CCCN(Cc3ccccc3)C2)CC1`, the AC50 on Cytochrome P450 2D6 is 7.94 µM (inconclusive).
